Test results from patent US6011037A, “Thiazole derivatives with phosphodiesterase-inhibiting action” (Byk Gulden Lomberg Chemische Fabrik GmbH, priority 1996, dated 2000).
Counter-ions that a name gives are not always drawn.

System: PDE IV
Assay: Inhibition of the PDE IV activity (method of Bauer and Schwabe, adapted to microtiter plates)
Assay type: biochemical

Structure (SMILES) | -log IC50
COc1ccc(-c2nc(-c3ccncc3)cs2)c2c1OC1(CCCC1)C2 [Compound 2, 4-[2-(2,3-Dihydro-7-methoxybenzofuran-2-spiro-1'-cyclopentan-4-yl)thiazol-4-yl]pyridinehydrobromide] | 7.09
COc1ccc(-c2nc(-c3cccnc3)cs2)c2c1OC1(CCCC1)C2 [Compound 1, 3-[2-(2,3-Dihydro-7-methoxybenzofuran-2-spiro-1'-cyclopentan-4-yl)thiazol-4-yl]pyridine] | 7.75
